Values quoted from earlier work as cited in patent US20020192255A1, “Liquid emanator device to deliver self-suspending insecticide droplets” (priority 2001, published 2002).

Conditions: thermal decomposition temperature

SMILES	decomposition of the chemical occurs above
C#CCC1=C(C)C(OC(=O)C2C(C=C(C)C)C2(C)C)CC1=O (mixture of isomers) [ETOC-TG, (+)-2-methyl4-oxo-3-(2-propynyl)-2-cyclopentenyl (+)-cis/trans-chrysanthemate]	above 608 ° F.
CC1(C)[C@H](C=C(Cl)Cl)[C@H]1C(=O)OCc1c(F)c(F)cc(F)c1F [transfluthrin]	above 392 ° F.
